Measured values as given in publication PMC7161706 (Acta Pharmaceutica Sinica. B, 2019).

Assays:
[1] = target: T1, GuC4H1 (Glycyrrhiza uralensis, UniProt A0A6B7HXZ5); test: yeast feeding, product by HPLC-Q-TOF-MS; format: cell-based; conditions: 20 μmol/L fed, 30 °C, 12 h; ATR1 reductase in WAT11
T1 sequence (A0A6B7HXZ5 1-505): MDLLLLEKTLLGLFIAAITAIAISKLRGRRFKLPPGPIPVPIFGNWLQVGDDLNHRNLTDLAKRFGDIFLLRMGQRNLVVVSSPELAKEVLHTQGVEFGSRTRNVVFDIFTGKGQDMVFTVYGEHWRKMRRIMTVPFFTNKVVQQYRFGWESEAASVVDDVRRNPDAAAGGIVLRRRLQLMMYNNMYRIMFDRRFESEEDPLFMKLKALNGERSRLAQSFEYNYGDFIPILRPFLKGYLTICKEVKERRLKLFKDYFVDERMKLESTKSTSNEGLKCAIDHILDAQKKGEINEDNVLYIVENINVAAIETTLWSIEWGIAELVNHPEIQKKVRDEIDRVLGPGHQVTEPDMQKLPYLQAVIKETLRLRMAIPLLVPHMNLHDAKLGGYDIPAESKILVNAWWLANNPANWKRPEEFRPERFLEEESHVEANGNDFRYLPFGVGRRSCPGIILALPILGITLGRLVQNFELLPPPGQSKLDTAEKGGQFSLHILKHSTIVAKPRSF

[2] = target: GuPAL1 (Glycyrrhiza uralensis, UniProt A0A6B7HYR5); test: product by HPLC-Q-TOF-MS; format: biochemical; conditions: 1 mmol/L substrate, pH 8.0, 30 °C, 10 h
Sequence of GuPAL1 (A0A6B7HYR5 1-783 limits assumed): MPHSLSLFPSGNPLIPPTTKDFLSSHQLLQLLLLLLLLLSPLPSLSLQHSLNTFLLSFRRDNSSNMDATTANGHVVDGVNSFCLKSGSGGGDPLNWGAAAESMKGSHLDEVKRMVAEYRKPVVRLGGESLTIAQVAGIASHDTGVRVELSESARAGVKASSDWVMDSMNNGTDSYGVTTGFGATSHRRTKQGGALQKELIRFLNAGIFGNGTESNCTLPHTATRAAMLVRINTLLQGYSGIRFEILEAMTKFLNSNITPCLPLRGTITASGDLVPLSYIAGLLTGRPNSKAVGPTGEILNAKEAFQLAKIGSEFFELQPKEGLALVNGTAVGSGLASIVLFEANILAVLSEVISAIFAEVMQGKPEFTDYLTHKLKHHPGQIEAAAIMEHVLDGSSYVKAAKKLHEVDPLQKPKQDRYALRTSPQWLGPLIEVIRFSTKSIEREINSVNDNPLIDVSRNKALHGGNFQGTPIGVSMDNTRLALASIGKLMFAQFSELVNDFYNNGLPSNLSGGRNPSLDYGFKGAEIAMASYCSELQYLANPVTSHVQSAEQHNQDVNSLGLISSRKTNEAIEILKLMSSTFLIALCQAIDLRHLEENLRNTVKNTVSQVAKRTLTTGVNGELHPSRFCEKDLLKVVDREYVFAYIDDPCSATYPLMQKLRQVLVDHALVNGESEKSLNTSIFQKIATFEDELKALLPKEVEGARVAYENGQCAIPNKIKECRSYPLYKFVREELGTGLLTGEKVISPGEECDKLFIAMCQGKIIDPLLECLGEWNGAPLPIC

SMILES | yeast feeding, product by HPLC-Q-TOF-MS (p-coumaric acid) [1] | product by HPLC-Q-TOF-MS (cinnamic acid) [2]
O=C(O)/C=C/c1ccccc1 [CiA, cinnamic acid] | GuC4H1 was able to produce p-coumaric acid upon feeding cinnamic acid and galactose | –
N[C@@H](Cc1ccccc1)C(=O)O [Phe, phenylalanine] | – | incubation of the staring substrate phenylalanine with GuPAL1 yielded cinnamic acid
